For 26 compounds, IC50 results are on record in patent publication US10961231B2, “NTCP inhibitors” (National Institute of Biological Sciences, Beijing, priority 2018, dated 2021).

As usually defined, the IC50 is the point on the concentration scale where inhibition reaches its midpoint.

The first test concerns the target T1, NTCP (Homo sapiens, UniProt Q14973).
T1 sequence (Q14973 1-349): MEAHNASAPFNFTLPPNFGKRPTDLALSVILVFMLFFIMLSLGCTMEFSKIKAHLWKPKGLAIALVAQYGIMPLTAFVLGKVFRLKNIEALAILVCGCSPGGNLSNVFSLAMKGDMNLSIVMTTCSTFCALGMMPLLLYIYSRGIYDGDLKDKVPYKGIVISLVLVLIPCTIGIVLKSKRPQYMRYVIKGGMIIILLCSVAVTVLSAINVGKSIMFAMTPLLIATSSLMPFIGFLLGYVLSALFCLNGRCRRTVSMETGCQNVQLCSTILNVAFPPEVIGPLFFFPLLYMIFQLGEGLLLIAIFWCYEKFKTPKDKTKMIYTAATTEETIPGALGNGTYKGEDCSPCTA
Nature of the test: [3H]-TCA uptake assay (NTCP inhibition). The following applies: IC50, given as a range, marked * (asterisk not explained). It is filed as cell-based. The essentials: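 Read-out is liquid scintillation counting of Triton X-100 lysates after 15 min, 37° C uptake of 1 μM [3H]-taurocholate in Na+ Ringer's buffer (145 mM Na). Beforehand, PTH and HepG2-NTCP cells had 24 h in PMM for NTCP induction and 2 h of compound or DMSO treatment.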
On to `CCC1NC(=O)C(C2OC(Oc3ccc4ccccc4c3)CC2C)N(C)C(=O)C(C(C)C)N(C)C(=O)C(CC(C)C)N(C)C(=O)C(CC(C)C)N(C)C(=O)C(C)NC(=O)C(C)NC(=O)C(CC(C)C)N(C)C(=O)C(C(C)C)NC(=O)C(CC(C)C)N(C)C(=O)CN(C)C1=O` (centres unmarked) [Compound 62-o], for which the IC50 was 1 to 100 µM. For `CCC1NC(=O)C(C2OC(Sc3ccc4ccccc4c3)CC2C)N(C)C(=O)C(C(C)C)N(C)C(=O)C(CC(C)C)N(C)C(=O)C(CC(C)C)N(C)C(=O)C(C)NC(=O)C(C)NC(=O)C(CC(C)C)N(C)C(=O)C(C(C)C)NC(=O)C(CC(C)C)N(C)C(=O)CN(C)C1=O` (centres unmarked) [Compound 62], the IC50 lay within 1 to 100 µM. On the same count and under the same terms, as for `CCC1NC(=O)C(C2OC(Oc3cc(Cl)cc(OCc4ccccc4)c3)CC2C)N(C)C(=O)C(C(C)C)N(C)C(=O)C(CC(C)C)N(C)C(=O)C(CC(C)C)N(C)C(=O)C(C)NC(=O)C(C)NC(=O)C(CC(C)C)N(C)C(=O)C(C(C)C)NC(=O)C(CC(C)C)N(C)C(=O)CN(C)C1=O` (centres unmarked) [Compound 63-o], the figure is 1 to 100 µM; as for `CCC1NC(=O)C(C2OC(Sc3cc(Cl)cc(OCc4ccccc4)c3)CC2C)N(C)C(=O)C(C(C)C)N(C)C(=O)C(CC(C)C)N(C)C(=O)C(CC(C)C)N(C)C(=O)C(C)NC(=O)C(C)NC(=O)C(CC(C)C)N(C)C(=O)C(C(C)C)NC(=O)C(CC(C)C)N(C)C(=O)CN(C)C1=O` (centres unmarked) [Compound 63], 1 to 100 µM.

The compound `CCC1NC(=O)C(C2OC(Oc3cc(Cl)cc(OCC4CCOCC4)c3)CC2C)N(C)C(=O)C(C(C)C)N(C)C(=O)C(CC(C)C)N(C)C(=O)C(CC(C)C)N(C)C(=O)C(C)NC(=O)C(C)NC(=O)C(CC(C)C)N(C)C(=O)C(C(C)C)NC(=O)C(CC(C)C)N(C)C(=O)CN(C)C1=O` (centres unmarked) [Compound 67-o] returned an IC50 of 1 to 100 µM. As for `CCC1NC(=O)C(C2OC(Sc3cc(Cl)cc(OCC4CCOCC4)c3)CC2C)N(C)C(=O)C(C(C)C)N(C)C(=O)C(CC(C)C)N(C)C(=O)C(CC(C)C)N(C)C(=O)C(C)NC(=O)C(C)NC(=O)C(CC(C)C)N(C)C(=O)C(C(C)C)NC(=O)C(CC(C)C)N(C)C(=O)CN(C)C1=O` (centres unmarked) [Compound 67], the half-maximal inhibitory concentration (IC50) was in the range of 1 to 100 µM. As for `CCC1NC(=O)C(C2OC(Oc3cccc(N(C)Cc4ccccc4)c3)CC2C)N(C)C(=O)C(C(C)C)N(C)C(=O)C(CC(C)C)N(C)C(=O)C(CC(C)C)N(C)C(=O)C(C)NC(=O)C(C)NC(=O)C(CC(C)C)N(C)C(=O)C(C(C)C)NC(=O)C(CC(C)C)N(C)C(=O)CN(C)C1=O` (centres unmarked) [Compound 68-o], the IC50 lay in the range of 1 to 100 µM.

Turning to `CCC1NC(=O)C(C2OC(Sc3cccc(N(C)Cc4ccccc4)c3)CC2C)N(C)C(=O)C(C(C)C)N(C)C(=O)C(CC(C)C)N(C)C(=O)C(CC(C)C)N(C)C(=O)C(C)NC(=O)C(C)NC(=O)C(CC(C)C)N(C)C(=O)C(C(C)C)NC(=O)C(CC(C)C)N(C)C(=O)CN(C)C1=O` (centres unmarked) [Compound 68], the IC50 was 1 to 100 µM. Still for that read-out and setting: to `CCC1NC(=O)C(C2OC(Oc3cccc(OCc4cccs4)c3)CC2C)N(C)C(=O)C(C(C)C)N(C)C(=O)C(CC(C)C)N(C)C(=O)C(CC(C)C)N(C)C(=O)C(C)NC(=O)C(C)NC(=O)C(CC(C)C)N(C)C(=O)C(C(C)C)NC(=O)C(CC(C)C)N(C)C(=O)CN(C)C1=O` (centres unmarked) [Compound 69-o] belongs 1 to 100 µM; to `CCC1NC(=O)C(C2OC(Sc3cccc(OCc4cccs4)c3)CC2C)N(C)C(=O)C(C(C)C)N(C)C(=O)C(CC(C)C)N(C)C(=O)C(CC(C)C)N(C)C(=O)C(C)NC(=O)C(C)NC(=O)C(CC(C)C)N(C)C(=O)C(C(C)C)NC(=O)C(CC(C)C)N(C)C(=O)CN(C)C1=O` (centres unmarked) [Compound 69], 1 to 100 µM. `CCC1NC(=O)C(C2OC(Oc3cccc(OCC4CCN(C)CC4)c3)CC2C)N(C)C(=O)C(C(C)C)N(C)C(=O)C(CC(C)C)N(C)C(=O)C(CC(C)C)N(C)C(=O)C(C)NC(=O)C(C)NC(=O)C(CC(C)C)N(C)C(=O)C(C(C)C)NC(=O)C(CC(C)C)N(C)C(=O)CN(C)C1=O` (centres unmarked) [Compound 72-o] showed an IC50 of 1 to 100 µM.

Regarding `CCC1NC(=O)C(C2OC(Sc3cccc(OCC4CCN(C)CC4)c3)CC2C)N(C)C(=O)C(C(C)C)N(C)C(=O)C(CC(C)C)N(C)C(=O)C(CC(C)C)N(C)C(=O)C(C)NC(=O)C(C)NC(=O)C(CC(C)C)N(C)C(=O)C(C(C)C)NC(=O)C(CC(C)C)N(C)C(=O)CN(C)C1=O` (centres unmarked) [Compound 72], the IC50 was 1 to 100 µM.

Still in this test, the particulars now being: given as a range, marked * (asterisk not explained).
`CCC1NC(=O)C(C2OC(Oc3cc(OC)cc(OCc4ccc(F)cc4)c3)CC2C)N(C)C(=O)C(C(C)C)N(C)C(=O)C(CC(C)C)N(C)C(=O)C(CC(C)C)N(C)C(=O)C(C)NC(=O)C(C)NC(=O)C(CC(C)C)N(C)C(=O)C(C(C)C)NC(=O)C(CC(C)C)N(C)C(=O)CN(C)C1=O` (centres unmarked) [Compound 60A-o] gave an IC50 of 1 to 100 µM. Regarding `CCC1NC(=O)C(C2OC(Oc3cc(Cl)cc(OCc4ccc(F)cc4)c3)CC2C)N(C)C(=O)C(C(C)C)N(C)C(=O)C(CC(C)C)N(C)C(=O)C(CC(C)C)N(C)C(=O)C(C)NC(=O)C(C)NC(=O)C(CC(C)C)N(C)C(=O)C(C(C)C)NC(=O)C(CC(C)C)N(C)C(=O)CN(C)C1=O` (centres unmarked) [Compound 61A-o], the IC50 fell in the range of 1 to 100 µM.

Regarding `CCC1NC(=O)C(C2OC(Oc3ccc(OC)c(OCc4ccccc4)c3)CC2C)N(C)C(=O)C(C(C)C)N(C)C(=O)C(CC(C)C)N(C)C(=O)C(CC(C)C)N(C)C(=O)C(C)NC(=O)C(C)NC(=O)C(CC(C)C)N(C)C(=O)C(C(C)C)NC(=O)C(CC(C)C)N(C)C(=O)CN(C)C1=O` (centres unmarked) [Compound 64-o], the IC50 lay within 1 to 100 µM.

For `CCC1NC(=O)C(C2OC(Sc3ccc(OC)c(OCc4ccccc4)c3)CC2C)N(C)C(=O)C(C(C)C)N(C)C(=O)C(CC(C)C)N(C)C(=O)C(CC(C)C)N(C)C(=O)C(C)NC(=O)C(C)NC(=O)C(CC(C)C)N(C)C(=O)C(C(C)C)NC(=O)C(CC(C)C)N(C)C(=O)CN(C)C1=O` (centres unmarked) [Compound 64], the IC50 fell in the range of 1 to 100 µM. For `CCC1NC(=O)C(C2OC(Oc3cc(OC)cc(OCc4ccccc4)c3)CC2C)N(C)C(=O)C(C(C)C)N(C)C(=O)C(CC(C)C)N(C)C(=O)C(CC(C)C)N(C)C(=O)C(C)NC(=O)C(C)NC(=O)C(CC(C)C)N(C)C(=O)C(C(C)C)NC(=O)C(CC(C)C)N(C)C(=O)CN(C)C1=O` (centres unmarked) [Compound 65-o], the IC50 was in the range of 1 to 100 µM. On the same count and under the same terms, as for `CCC1NC(=O)C(C2OC(Sc3cc(OC)cc(OCc4ccccc4)c3)CC2C)N(C)C(=O)C(C(C)C)N(C)C(=O)C(CC(C)C)N(C)C(=O)C(CC(C)C)N(C)C(=O)C(C)NC(=O)C(C)NC(=O)C(CC(C)C)N(C)C(=O)C(C(C)C)NC(=O)C(CC(C)C)N(C)C(=O)CN(C)C1=O` (centres unmarked) [Compound 65], the figure is 1 to 100 µM. The compound `CCC1NC(=O)C(C2OC(Oc3cc(OC)cc(OCC4CCOCC4)c3)CC2C)N(C)C(=O)C(C(C)C)N(C)C(=O)C(CC(C)C)N(C)C(=O)C(CC(C)C)N(C)C(=O)C(C)NC(=O)C(C)NC(=O)C(CC(C)C)N(C)C(=O)C(C(C)C)NC(=O)C(CC(C)C)N(C)C(=O)CN(C)C1=O` (centres unmarked) [Compound 66-o] came in with a half-inhibitory concentration (IC50) of 1 to 100 µM.

`CCC1NC(=O)C(C2OC(Sc3cc(OC)cc(OCC4CCOCC4)c3)CC2C)N(C)C(=O)C(C(C)C)N(C)C(=O)C(CC(C)C)N(C)C(=O)C(CC(C)C)N(C)C(=O)C(C)NC(=O)C(C)NC(=O)C(CC(C)C)N(C)C(=O)C(C(C)C)NC(=O)C(CC(C)C)N(C)C(=O)CN(C)C1=O` (centres unmarked) [Compound 66]: the IC50 lay in the range of 1 to 100 µM.

`CCC1NC(=O)C(C2OC(Oc3cc(OC)cc(OCC4CCN(C)CC4)c3)CC2C)N(C)C(=O)C(C(C)C)N(C)C(=O)C(CC(C)C)N(C)C(=O)C(CC(C)C)N(C)C(=O)C(C)NC(=O)C(C)NC(=O)C(CC(C)C)N(C)C(=O)C(C(C)C)NC(=O)C(CC(C)C)N(C)C(=O)CN(C)C1=O` (centres unmarked) [Compound 70-o] returned an IC50 of 1 to 100 µM. `CCC1NC(=O)C(C2OC(Sc3cc(OC)cc(OCC4CCN(C)CC4)c3)CC2C)N(C)C(=O)C(C(C)C)N(C)C(=O)C(CC(C)C)N(C)C(=O)C(CC(C)C)N(C)C(=O)C(C)NC(=O)C(C)NC(=O)C(CC(C)C)N(C)C(=O)C(C(C)C)NC(=O)C(CC(C)C)N(C)C(=O)CN(C)C1=O` (centres unmarked) [Compound 70] came in with an IC50 of 1 to 100 µM. Turning to `CCC1NC(=O)C(C2OC(Oc3cc(Cl)cc(OCC4CCN(C)CC4)c3)CC2C)N(C)C(=O)C(C(C)C)N(C)C(=O)C(CC(C)C)N(C)C(=O)C(CC(C)C)N(C)C(=O)C(C)NC(=O)C(C)NC(=O)C(CC(C)C)N(C)C(=O)C(C(C)C)NC(=O)C(CC(C)C)N(C)C(=O)CN(C)C1=O` (centres unmarked) [Compound 71-o], the half-maximal inhibitory concentration (IC50) is 1 to 100 µM. In turn, `CCC1NC(=O)C(C2OC(Sc3cc(Cl)cc(OCC4CCN(C)CC4)c3)CC2C)N(C)C(=O)C(C(C)C)N(C)C(=O)C(CC(C)C)N(C)C(=O)C(CC(C)C)N(C)C(=O)C(C)NC(=O)C(C)NC(=O)C(CC(C)C)N(C)C(=O)C(C(C)C)NC(=O)C(CC(C)C)N(C)C(=O)CN(C)C1=O` (centres unmarked) [Compound 71] registered an IC50 of 1 to 100 µM.

Staying with this test, now noted: given as a range; assay not given.
`CCC1NC(=O)C(C2OC(Sc3cc(OC)cc(OCc4ccc(F)cc4)c3)CC2C)N(C)C(=O)C(C(C)C)N(C)C(=O)C(CC(C)C)N(C)C(=O)C(CC(C)C)N(C)C(=O)C(C)NC(=O)C(C)NC(=O)C(CC(C)C)N(C)C(=O)C(C(C)C)NC(=O)C(CC(C)C)N(C)C(=O)CN(C)C1=O` [Compound 60A, [2-((2R,3R)-5-(3-(4-fluorobenzyloxy)-5-methoxyphenylthio)-3-methyltetrahydrofuran-2-yl)-2-(methylamino)acetic acid]^1-cyclosporin A] registered an IC50 of 0.001 to 1 µM.

The test is the same for the next values; noted with them: given as a range; assay not given; read-out: IC50.
As to `CCC1NC(=O)C(C2OC(Sc3cc(Cl)cc(OCc4ccc(F)cc4)c3)CC2C)N(C)C(=O)C(C(C)C)N(C)C(=O)C(CC(C)C)N(C)C(=O)C(CC(C)C)N(C)C(=O)C(C)NC(=O)C(C)NC(=O)C(CC(C)C)N(C)C(=O)C(C(C)C)NC(=O)C(CC(C)C)N(C)C(=O)CN(C)C1=O` [Compound 61A, [2-((2R,3R)-5-(3-chloro-5-(4-fluorobenzyloxy)phenylthio)-3-methyltetrahydrofuran-2-yl)-2-(methylamino)acetic acid] 1-cyclosporin A], the IC50 was in the range of 0.001 to 1 µM.
